Calls of active or inactive are those of the source. The calls are words filed in the database; no cut-off is given here.
Legend:
[1] = biological target: Glutamate receptor ionotropic, kainate; conditions: oocyte
[2] = biological target: Glutamate receptor ionotropic, AMPA (Rattus norvegicus, UniProt P19490+P19491+P19492+P19493)
Description: Displacement of [3H]AMPA from Ionotropic glutamate receptor AMPA of rat cortical membranes

Mus musculus [3] = assay: Effective dose of the intraperitoneally administered compound required to protect 50% of mice from tonic convulsion caused by maximal electric shock (MES); format: functional; conditions: ip
Glutamate NMDA receptor = assay: Displacement of [3H]DCKA from N-methyl-D-aspartate glutamate receptor of rat cortical membrane
Mus musculus [4] = assay: Effective dose of the intraperitoneally administered compound required to protect 50% of DBA/2 mice from tonico-clonic convulsion; format: functional; conditions: ip
Mus musculus [5] = assay: Compound tested for sound induced convulsions in DBA/2 mice following ip administration; Compound was active; format: functional, organism-based
[6] = biological target: Glutamate receptor ionotropic, kainate (Rattus norvegicus) (UniProt P22756+Q01812+P42260+P42264+Q63273); assay: Inhibitory activity against generation of currents by 50 uM kainate in Xenopus oocytes injected with rat brain mRNA; format: functional, cell-based; conditions: Oocyte

Row | Compound | IC50 [1] [µM] | IC50 [2] [µM] | ED50 (Mus musculus [3]) [mg/kg] | IC50 (Glutamate NMDA receptor) [µM] | ED50 (Mus musculus [4]) [mg/kg] | Activity (Mus musculus [5]) | Kb [6] [µM]
1 | NC(=O)c1cn2c3c(nc(O)c2n1)-c1ccccc1C3 | 1.25 | 0.476 | > 80 | 0.73 | – | – | –
2 | Nc1ccc2c(c1)Cc1c-2nc(O)c2nc(C(=O)O)cn12 | 0.236 | 0.473 | 80 | 6.9 | – | – | –
3 | O=C(O)c1cn2c3c(nc(O)c2n1)-c1ccccc1C3 | 0.03 | 0.15 | 50 | – | 20 | – | –
4 | O=C(O)c1cn2c3c(nc(O)c2n1)-c1ccc(F)cc1C3 | 0.025 | 0.06 | 56 | 0.455 | – | – | –
5 | Oc1nc2c(n3ccnc13)Cc1ccccc1-2 | 1.8 | – | 62 | – | – | – | –
6 | CCOC(=O)c1cn2c3c(nc(O)c2n1)-c1ccccc1C3 | 0.35 | 0.21 | > 80 | 0.198 | > 80 | – | –
7 | NS(=O)(=O)c1cccc2c1c([N+](=O)[O-])cc1nc(O)c(O)nc12 [NBQX] | – | – | 36 | > 10 | 13 | – | –
8 | O=c1[nH]c2cc(-n3ccnc3)c([N+](=O)[O-])cc2[nH]c1=O [YM-90K] | 0.26 | – | 12 | – | 15 | – | –
9 | CNC(=O)Nc1ccc2c(c1)C(CC(=O)O)c1c-2nc(O)c2nccn12 (racemic) | 0.002 | – | 1 | 10 | 0.9 | – | –
10 | CNC(=O)Nc1ccc2c(c1)Cc1c-2nc(O)c2nc(C(=O)O)cn12 | – | 0.009 | 0.7 | 4.33 | 0.5 | Active | 0.00392
11 | CCOC(=O)c1cn2c3c(nc(O)c2n1)-c1ccc(NC(=O)NC)cc1C3 | 0.006 | 0.009 | > 80 | 10 | > 20 | – | –
12 | CN1CCCC12c1ccccc1-c1nc(O)c3nccn3c12 (racemic) | 0.89 | – | 17 | – | – | – | –
13 | CCOC(=O)c1cn2c3c(nc(O)c2n1)-c1ccc(F)cc1C3 | – | 0.055 | > 80 | – | – | – | –
14 | O=C(O)[C@@H]1C[C@H]2C[C@@H](CCc3nn[nH]n3)CC[C@H]2CN1 [TEZAMPANEL ANHYDROUS] | 0.23 | – | 4 | – | – | – | –

Reference: ChEMBL document CHEMBL1132888, “4,10-Dihydro-4-oxo-4H-imidazo[1,2-a]indeno[1,2-e]pyrazin-2-carboxylic acid derivatives: highly potent and selective AMPA receptors antagonists with in vivo activity” (Bioorg Med Chem Lett, 2000)
